Test results published in patent publication US9326506B2, “Preparation method, agricultural composition and applications of natural brassinolide analogs” (CHENGDU NEWSUN CROPSCIENCE CO., LTD, priority 2012, dated 2016).

Tested on: rice
Experiment: Low temperature assay on rice seedlings
Assay type: in vivo
Description: According to a low temperature assay, we measured parameters including plant height, number of leaf, area of leaf, number of tiller, weight of root at low temperature to completely determine effects of the natural brassinolide analogues on the resistance to low temperature of a plant.
The natural brassinolide analogues, BR1, BR2, BR3, BR4, BR5 and BR6, used herein, were those prepared by the method of Example 1. Respectively the analogues were dissolved into 95% (V/V) ethanol solution, and then diluted with pure water to 1 mg/L, 0.1 mg/L, 0.01 mg/L, 0.001 mg/L and 0.0001 mg/L. In addition, pure water was used as a control.
After rice seeds were disinfected by using 5% sodium hypochlorite solution treatment, they were rinsed with distilled water until their pH>7, placed into a petri dish in a dark incubator, and cultured by using water at 30° C.±2° C. for 9 days. Then respectively the nine-day-old etiolated seedlings of rice were immersed in the above solutions containing different concentrations of the natural brassinolide analogues or pure water, and cultured at the temperature of 1° C., 2° C., 3° C., 4° C. and 5° C. for 24 hr. The parameters including plant height, area of leaf and weight of root after 3, 6, 9 and 12 days and number of leaf and number of tiller after 12 days were measured.

Work on `C=C(C(C)C)[C@@H](O)[C@H](O)[C@@H](C)[C@H]1CCC2C3COC(=O)C4C[C@H](O)[C@H](O)C[C@]4(C)C3CC[C@@]21C` (stereo partly drawn) [BR3] yielded an Area of leaf (0.0001 mg/l, 1 °C, 3 days) of 9.8 cm^2, a Height (0.0001 mg/l, 1 °C, 3 days) of 6.8 cm and a Weight of root (0.0001 mg/l, 1 °C, 3 days) of 2.8 g. The Area of leaf (0.0001 mg/l, 1 °C, 6 days) was 11 cm^2, the Height (0.0001 mg/l, 1 °C, 6 days) was 6.9 cm and the Weight of root (0.0001 mg/l, 1 °C, 6 days) was 3 g. It also gave an Area of leaf (0.0001 mg/l, 1 °C, 9 days) of 12.2 cm^2, a Height (0.0001 mg/l, 1 °C, 9 days) of 7.1 cm and a Weight of root (0.0001 mg/l, 1 °C, 9 days) of 3.4 g. For the same molecule, the Area of leaf (0.0001 mg/l, 1 °C, 12 days) was 13.1 cm^2, the Height (0.0001 mg/l, 1 °C, 12 days) was 7.2 cm and the Number of leaf (0.0001 mg/l, 1 °C, 12 days) was 3. For the same molecule, the Number of tiller (0.0001 mg/l, 1 °C, 12 days) was 3, the Weight of root (0.0001 mg/l, 1 °C, 12 days) was 3.9 g and the Area of leaf (0.0001 mg/l, 2 °C, 3 days) was 10 cm^2. It also gave a Height (0.0001 mg/l, 2 °C, 3 days) of 6.8 cm, a Weight of root (0.0001 mg/l, 2 °C, 3 days) of 2.8 g and an Area of leaf (0.0001 mg/l, 2 °C, 6 days) of 11.7 cm^2. The Height (0.0001 mg/l, 2 °C, 6 days) was 7 cm, the Weight of root (0.0001 mg/l, 2 °C, 6 days) was 3.0 g and the Area of leaf (0.0001 mg/l, 2 °C, 9 days) was 12.1 cm^2. It also gave a Height (0.0001 mg/l, 2 °C, 9 days) of 7.1 cm, a Weight of root (0.0001 mg/l, 2 °C, 9 days) of 3.2 g and an Area of leaf (0.0001 mg/l, 2 °C, 12 days) of 13 cm^2. For the same molecule, the Height (0.0001 mg/l, 2 °C, 12 days) was 7.4 cm, the Number of leaf (0.0001 mg/l, 2 °C, 12 days) was 3 and the Number of tiller (0.0001 mg/l, 2 °C, 12 days) was 3. The Weight of root (0.0001 mg/l, 2 °C, 12 days) was 3.9 g, the Area of leaf (0.0001 mg/l, 3 °C, 3 days) was 10 cm^2 and the Height (0.0001 mg/l, 3 °C, 3 days) was 6.9 cm. The Weight of root (0.0001 mg/l, 3 °C, 3 days) was 2.5 g, the Area of leaf (0.0001 mg/l, 3 °C, 6 days) was 11.8 cm^2 and the Height (0.0001 mg/l, 3 °C, 6 days) was 7.1 cm. It also gave a Weight of root (0.0001 mg/l, 3 °C, 6 days) of 2.6 g, an Area of leaf (0.0001 mg/l, 3 °C, 9 days) of 12.1 cm^2 and a Height (0.0001 mg/l, 3 °C, 9 days) of 7.4 cm. The Weight of root (0.0001 mg/l, 3 °C, 9 days) was 2.9 g, the Area of leaf (0.0001 mg/l, 3 °C, 12 days) was 13.2 cm^2 and the Height (0.0001 mg/l, 3 °C, 12 days) was 7.5 cm. For the same molecule, the Number of leaf (0.0001 mg/l, 3 °C, 12 days) was 3, the Number of tiller (0.0001 mg/l, 3 °C, 12 days) was 2 and the Weight of root (0.0001 mg/l, 3 °C, 12 days) was 2.9 g. It also gave an Area of leaf (0.0001 mg/l, 4 °C, 3 days) of 10 cm^2, a Height (0.0001 mg/l, 4 °C, 3 days) of 6.9 cm and a Weight of root (0.0001 mg/l, 4 °C, 3 days) of 2.5 g. The Area of leaf (0.0001 mg/l, 4 °C, 6 days) was 11.5 cm^2, the Height (0.0001 mg/l, 4 °C, 6 days) was 7.3 cm and the Weight of root (0.0001 mg/l, 4 °C, 6 days) was 2.6 g. The Area of leaf (0.0001 mg/l, 4 °C, 9 days) was 13 cm^2, the Height (0.0001 mg/l, 4 °C, 9 days) was 7.5 cm and the Weight of root (0.0001 mg/l, 4 °C, 9 days) was 2.9 g. For the same molecule, the Area of leaf (0.0001 mg/l, 4 °C, 12 days) was 13.4 cm^2, the Height (0.0001 mg/l, 4 °C, 12 days) was 7.5 cm and the Number of leaf (0.0001 mg/l, 4 °C, 12 days) was 3. The Number of tiller (0.0001 mg/l, 4 °C, 12 days) was 2, the Weight of root (0.0001 mg/l, 4 °C, 12 days) was 2.9 g and the Area of leaf (0.0001 mg/l, 5 °C, 3 days) was 10.2 cm^2. For the same molecule, the Height (0.0001 mg/l, 5 °C, 3 days) was 7.0 cm, the Weight of root (0.0001 mg/l, 5 °C, 3 days) was 2.5 g and the Area of leaf (0.0001 mg/l, 5 °C, 6 days) was 12 cm^2. The Height (0.0001 mg/l, 5 °C, 6 days) was 7.4 cm, the Weight of root (0.0001 mg/l, 5 °C, 6 days) was 2.5 g and the Area of leaf (0.0001 mg/l, 5 °C, 9 days) was 13.4 cm^2. For the same molecule, the Height (0.0001 mg/l, 5 °C, 9 days) was 7.5 cm, the Weight of root (0.0001 mg/l, 5 °C, 9 days) was 2.9 g and the Area of leaf (0.0001 mg/l, 5 °C, 12 days) was 14 cm^2. For the same molecule, the Height (0.0001 mg/l, 5 °C, 12 days) was 7.7 cm, the Number of leaf (0.0001 mg/l, 5 °C, 12 days) was 3 and the Number of tiller (0.0001 mg/l, 5 °C, 12 days) was 2. It also gave a Weight of root (0.0001 mg/l, 5 °C, 12 days) of 3.0 g, an Area of leaf (0.001 mg/l, 1 °C, 3 days) of 10 cm^2 and a Height (0.001 mg/l, 1 °C, 3 days) of 6.9 cm. The Weight of root (0.001 mg/l, 1 °C, 3 days) was 2.8 g, the Area of leaf (0.001 mg/l, 1 °C, 6 days) was 11.3 cm^2 and the Height (0.001 mg/l, 1 °C, 6 days) was 7.1 cm. The Weight of root (0.001 mg/l, 1 °C, 6 days) was 3.1 g, the Area of leaf (0.001 mg/l, 1 °C, 9 days) was 12.6 cm^2 and the Height (0.001 mg/l, 1 °C, 9 days) was 7.1 cm. The Weight of root (0.001 mg/l, 1 °C, 9 days) was 3.2 g, the Area of leaf (0.001 mg/l, 1 °C, 12 days) was 13 cm^2 and the Height (0.001 mg/l, 1 °C, 12 days) was 7.3 cm. It also gave a Number of leaf (0.001 mg/l, 1 °C, 12 days) of 3, a Number of tiller (0.001 mg/l, 1 °C, 12 days) of 3 and a Weight of root (0.001 mg/l, 1 °C, 12 days) of 3.9 g. For the same molecule, the Area of leaf (0.001 mg/l, 2 °C, 3 days) was 9.8 cm^2, the Height (0.001 mg/l, 2 °C, 3 days) was 6.9 cm and the Weight of root (0.001 mg/l, 2 °C, 3 days) was 2.8 g.
